Measured values: US9340569B2, “Methods and compositions for inhibiting clostridium difficile spore germination and outgrowth” (priority 2008, dated 2016)
Entries after “also recorded” stand apart in the source; their conditions may differ. Where a name gives a salt, the structure may show the parent alone. Read-outs that look alike come from different tables or passages of the source.

How the values were obtained:
C. difficile spores [1] = experiment: Inhibition of taurocholate-induced C. difficile spore germination, Ki from Lineweaver-Burk plot; type: cell-based, Clostridium difficile; details: for Inhibits Germination?: BHIS with 2-50 mM taurocholate plus inhibitor, OD600; for Ki: binding constant of inhibitor for the spore, competition with taurocholate
C. difficile spores [2] = type: cell-based, Clostridium difficile
C. difficile spores [3] = type: cell-based, Clostridium difficile; remark: listed apart in the source
C. perfringens SM101 = type: cell-based, Clostridium perfringens
vegetative C. difficile = type: cell-based, Clostridium difficile
C. difficile spores [4] = system: C. difficile spores
[5] = rat, in vivo; cited from earlier work
[6] = in vivo; cited from earlier work

COC(=O)CC[C@@H](C)[C@H]1CC[C@H]2[C@@H]3C[C@@H](O)[C@@H]4C[C@H](O)CC[C@]4(C)[C@H]3CC[C@]12C [5β-cholanic acid 3α,6β diol methyl ester]
Inhibits Germination? (C. difficile spores [1]): Yes | Ki (C. difficile spores [1]): 48 µM

COC(=O)CC[C@@H](C)[C@H]1CC[C@H]2[C@@H]3[C@H](O)C[C@@H]4C[C@H](O)CC[C@]4(C)[C@H]3CC[C@]12C [5β-cholanic acid 3α,7α diol methyl ester, 5β-cholanic acid-3α,7α-diol methyl ester]
Inhibits Germination? (C. difficile spores [1]): Yes | Ki (C. difficile spores [1]): 22 µM

CC(=O)O[C@@H]1CC[C@@]2(C)[C@H](CC[C@@H]3[C@@H]2CC[C@]2(C)[C@@H]([C@H](C)CCC(=O)O)CC[C@@H]32)C1 [5β-cholanic acid 3α-ol-acetate]
Inhibits Germination? (C. difficile spores [1]): No

COC(=O)CC[C@@H](C)[C@H]1CC[C@H]2[C@@H]3[C@H](O)C[C@@H]4C[C@H](OC(C)=O)CC[C@]4(C)[C@H]3CC[C@]12C [5β-cholanic acid-3α,7α-diol 3-acetate methyl ester]
Inhibits Germination? (C. difficile spores [1]): Yes | Ki (C. difficile spores [1]): 40 µM

COC(=O)CC[C@@H](C)[C@H]1CC[C@H]2[C@@H]3[C@H](OC(C)=O)C[C@@H]4C[C@H](OC(C)=O)CC[C@]4(C)[C@H]3CC[C@]12C [5β-cholanic acid-3α,7α-diol diacetate methyl ester]
affinity for C. difficile spores relative to chenodeoxycholate (C. difficile spores [1]): 7-8 times | potency as inhibitor of spore germination relative to chenodeoxycholate (C. difficile spores [1]): approximately ten times more potent | Inhibits Germination? (C. difficile spores [1]): Yes | Ki (C. difficile spores [1]): 40 µM

CC(CCC(=O)O)C1CCC2C3CC(=O)C4CC(O)CCC4(C)C3CCC12C (stereo not shown) [6-ketolithocholate]
Inhibits Germination? (C. difficile spores [1]): Yes | Ki (C. difficile spores [1]): 200 µM

C[C@H](CCC(=O)O)[C@H]1CC[C@H]2[C@@H]3[C@H](O)C[C@@H]4C[C@H](O)CC[C@]4(C)[C@H]3C[C@H](O)[C@]12C [CA, cholate]
germination (decrease in optical density) in BHIS (C. difficile spores [2]): did not result in any significant decrease in the optical density | colony formation by spores, in words (C. difficile spores [3]): stimulated efficient colony formation | growth of vegetative C. perfringens (C. perfringens SM101): able to grow, however, to wild-type levels | growth of vegetative C. difficile (vegetative C. difficile): able to grow

C[C@H](CCC(=O)O)[C@H]1CC[C@H]2[C@@H]3[C@H](O)C[C@@H]4C[C@H](O)CC[C@]4(C)[C@H]3CC[C@]12C [CDCA, chenodeoxycholate]
colony formation after transient exposure, in words (C. difficile spores [4]): did not induce colony formation | inhibition of colony formation in response to cholate (C. difficile spores [4]): inhibited colony formation | inhibition of colony formation in response to taurocholate (C. difficile spores [4]): inhibited colony formation | growth of vegetative C. perfringens (C. perfringens SM101): unable to grow; also recorded: inhibited the growth | growth of vegetative C. difficile (vegetative C. difficile): unable to grow; also recorded: inhibited the growth | inhibition of vegetative growth of C. difficile, general statement (vegetative C. difficile): capable of inhibiting the vegetative growth

C[C@H](CCC(=O)O)[C@H]1CC[C@H]2[C@@H]3CC[C@@H]4C[C@H](O)CC[C@]4(C)[C@H]3C[C@H](O)[C@]12C [DCA, deoxycholate]
germination (decrease in optical density) in BHIS (C. difficile spores [2]): small drop in OD600 that after 60 min was not significantly more than the change in OD of spores in BHIS alone | colony formation after transient exposure, in words (C. difficile spores [4]): indistinguishable from that of spores incubated with taurocholate | growth of vegetative C. perfringens (C. perfringens SM101): neither C. difficile nor C. perfringens grew | growth of vegetative C. difficile (vegetative C. difficile): neither C. difficile nor C. perfringens grew

C[C@H](CCC(=O)NCC(=O)O)[C@H]1CC[C@H]2[C@@H]3[C@H](O)C[C@@H]4C[C@H](O)CC[C@]4(C)[C@H]3C[C@H](O)[C@]12C [GA, glycocholate]
germination (decrease in optical density) in BHIS (C. difficile spores [2]): did not result in any significant decrease in the optical density | colony formation by spores, in words (C. difficile spores [3]): stimulated efficient colony formation | growth of vegetative C. perfringens (C. perfringens SM101; BHIS containing 0.1% bile salt): able to grow, however, to wild-type levels | growth of vegetative C. difficile (vegetative C. difficile): able to grow

CCN(CCS(=O)(=O)O)C(=O)CC[C@@H](C)[C@H]1CC[C@H]2[C@@H]3[C@@H](O)C[C@@H]4C[C@H](O)CC[C@]4(C)[C@H]3CC[C@]12C [N-ethyl-tauroursodeoxycholate]
deconjugation [5]: 3.4+/−2.1%

C[C@H](CCC(=O)NCCS(=O)(=O)O)[C@H]1CC[C@H]2[C@@H]3[C@H](O)C[C@@H]4C[C@H](O)CC[C@]4(C)[C@H]3CC[C@]12C [Taurochenodeoxycholate, 5β-cholanic acid-3α,7α-diol n-(2-sulphoethyl)-amide sodium salt]
Inhibits Germination? (C. difficile spores [1]; listed as taurochenodeoxycholate, sodium salt): neither 5β-cholanic acid 3α-ol-acetate nor taurochenodeoxycholate was observed to inhibit | Inhibits Germination? (C. difficile spores [1]; sodium salt): No

C[C@H](CCC(=O)O)[C@H]1CC[C@H]2[C@@H]3[C@@H](O)C[C@@H]4C[C@H](O)CC[C@]4(C)[C@H]3CC[C@]12C [UA, ursodeoxycholate]
inhibition of vegetative growth of C. difficile, general statement (vegetative C. difficile): capable of inhibiting the vegetative growth

C[C@H](CCC(=O)N(C)CC(=O)O)[C@H]1CC[C@H]2[C@@H]3[C@H](O)C[C@@H]4C[C@H](O)CC[C@]4(C)[C@H]3C[C@H](O)[C@]12C [cholylsarcosine]
resistance to deconjugation [6]: resistant to deconjugation

NCC(=O)O [glycine]
cogermination in buffer (OD600) (C. difficile spores [2]): germinated in the presence of taurocholate but not in its absence | germination (optical density), glycine plus taurocholate (C. difficile spores [2]): the efficiency of germination was enhanced | germination (optical density), single agent (C. difficile spores [2]): a small decrease in the optical density

C[C@H](CCC(=O)NCCS(=O)(=O)O)[C@H]1CC[C@H]2[C@@H]3[C@@H](O)C[C@@H]4C[C@H](O)CC[C@]4(C)[C@H]3CC[C@]12C [tauroursodeoxycholate]
deconjugation [5]: 100%
